Measurements: patent US8034556B2, “Regulation of glucose and insulin levels by GnT-4 glycosyltransferase activity” (The Regents of the University of California, priority 2004, dated 2011)

Tests used:
islet cells = assay: In vitro islet cell glucose transport assay (2-NBDG uptake); format: cell-based, mouse; conditions: for Km: Lineweaver-Burke plot, 5 min incubation
Protocol: Mouse islet cells were obtained as described (Josefsen et al., J. Endocrinology 14: 145-154, 1996). Briefly, the pancreatic duct was ligated distally and injected with 3 mg/ml collagenase (Sigma), 5 μg/ml DNase (Sigma) and 5.6 mM glucose in Hank's balanced salt solution (HBSS)). The pancreas was removed and incubated for 14 min at 37° C. with shaking (200 strokes/min). The suspension was passed through a 16 gauge needle, centrifuged and suspended in the bottom layer of a discontinuous Ficoll gradient (11%, 20%, 23%, and 25%). After 15 min of centrifugation at 800× gravity at room temperature, cells were recovered from the interfaces and washed in HBSS, followed by hand selection of the islet-enriched interface under a stereomicroscope. Islets were gently dispersed after three consecutive washes with HBSS, then exposed to 0.5 U/ml of dispase (Calbiochem) in HBSS for 3 min. This was followed by gentle repetitive pipeting and a final wash with HBSS. The cells were cultured in RPMI-1640 medium containing 10% FCS, 2 mM L-glutamine, 0.1 mM 2-mercaptoethanol, and 11 mM glucose.
Glucose transport into islet cells was measured using 2-[N-(7-nitrobenz-2-oxa-1,3-diazol-4-yl)amino]-2-deoxy-D-glucose (2-NBDG, Molecular Probes) as described (Yamada et al., J. Biol. Chem. 275: 22278-22283, 2000) Islet cells were incubated in glucose free-KRBH for 20 min at 37° C., and then with various concentrations of 2-NBDG. To measure the time course of 2-NBDG transport, islet cells were incubated with 500 μM of 2-NBDG in KRBH in the presence or absence of 10 mM D-glucose for the indicated times (FIG. 2K), then washed three times with glucose free-KRBH, and intracellular fluorescence (excitation 485-495 nm, emission 515-525 nm) was measured using a VersaFluor Fluorometer System (Bio-Rad, Hercules, Calif.). Concentration dependence was determined in same conditions except that cells were incubated with 100 μM, 200 μM, 400 μM, 800 μM, 1.6 mM, 3.2 mM, or 6.4 mM of 2-NBDG for 5 min.

[1] = Arginine tolerance test (serum insulin after L-arginine injection); format: in vivo; conditions: wild-type and GnT-4a deficient mice, fasted 16 hr, i.p. 3 g/Kg
Protocol: Mice were fasted for 16 hr followed by intraperitoneal (i.p.) glucose injection (1.5 g/Kg body weight). Blood samples were obtained at 0, 30, 60, 120, and 240 min after the injection and measurements of glucose and insulin was determined, the latter using a rat insulin ELISA assay with a mouse insulin standard (Crystal Chem., Chicago, Ill.). In testing insulin tolerance, mice were injected i.p. with 2 U/kg body weight human insulin (Carbiochem, La Jolla, Calif.) followed by blood collection at 0, 30, 60 120, and 240 min after injection, and serum glucose levels were analyzed. In arginine tolerance tests, mice were fasted overnight for 16 hr followed by i.p. injection (3 g/Kg body weight) of L-arginine (Sigma, St. Louis, Mo.). Blood samples were analyzed at 0, 2, 5, 15, and 30 min after the injection.

For `O=[N+]([O-])c1ccc(N[C@H]2C(O)O[C@H](CO)[C@@H](O)[C@@H]2O)c2nonc12` (stereo partly drawn) [2-NBDG, 2-[N-(7-nitrobenz-2-oxa-1,3-diazol-4-yl)amino]-2-deoxy-D-glucose], the Km (islet cells; Mgat4a null islet cells) was 9.1 mM, the “Vmax of 2-NBDG uptake” value (islet cells; Mgat4a null islets) was 1.86 nmol/5 min/0.5×10^5 cells and the Km (islet cells; wild-type islet cells) was 9.53 mM. The “Vmax of 2-NBDG uptake” value (islet cells; wild-type islets) was 16.95 nmol/5 min/0.5×10^5 cells.
For `N=C(N)NCCC[C@H](N)C(=O)O` [L-arginine], the “Serum insulin concentrations after L-arginine treatment” value [1] was “robust increases in serum insulin concentrations”.
